Reference: the NIST ThermoML archive (doi:10.1016/j.fluid.2014.09.014)

Test: refractive index (other wavelength) (dimensionless); xn = mol fraction of the nth substance listed
Settings: 293.15 K, 101 kPa, Liquid, Standard Abbe refractometry

CC(C)OC(C)C [diisopropyl ether] + CO
refractive index
Settings | Wavelength=40.47 nm | Wavelength=435.8 nm | Wavelength=486.1 nm | Wavelength=546.1 nm | Wavelength=587.6 nm | Wavelength=589.3 nm | Wavelength=632.8 nm
x2 = 0 | 1.37888 | 1.37585 | 1.37241 | 1.36955 | 1.36806 | 1.36801 | 1.36674
x2 = 0.0423 | 1.37892 | 1.37589 | 1.37246 | 1.3696 | 1.36811 | 1.36806 | 1.36678
x2 = 0.0424 | 1.37884 | 1.37583 | 1.37238 | 1.36953 | 1.36803 | 1.36798 | 1.3667
x2 = 0.082 | 1.37887 | 1.37585 | 1.37242 | 1.36956 | 1.36807 | 1.36802 | 1.36674
x2 = 0.0822 | 1.37872 | 1.37569 | 1.37228 | 1.36942 | 1.36795 | 1.36789 | 1.36663
x2 = 0.1171 | 1.37858 | 1.37556 | 1.37214 | 1.3693 | 1.36783 | 1.36777 | 1.36649
x2 = 0.1271 | 1.37862 | 1.3756 | 1.37217 | 1.36933 | 1.36784 | 1.36779 | 1.36651
x2 = 0.1827 | 1.37814 | 1.37514 | 1.37173 | 1.36889 | 1.36741 | 1.36736 | 1.36608
x2 = 0.2162 | 1.37791 | 1.37492 | 1.37149 | 1.36867 | 1.36719 | 1.36713 | 1.36585
x2 = 0.251 | 1.37812 | 1.37513 | 1.37172 | 1.36888 | 1.36741 | 1.36735 | 1.36609
x2 = 0.3298 | 1.37709 | 1.37411 | 1.37071 | 1.36792 | 1.36645 | 1.3664 | 1.36512
x2 = 0.3577 | 1.37556 | 1.37264 | 1.36925 | 1.36647 | 1.365 | 1.36494 | 1.36367
x2 = 0.4497 | 1.37463 | 1.3717 | 1.36834 | 1.36558 | 1.36412 | 1.36407 | 1.3628
x2 = 0.4525 | 1.37517 | 1.37223 | 1.36886 | 1.36609 | 1.36462 | 1.36457 | 1.3633
x2 = 0.522 | 1.37278 | 1.36987 | 1.36658 | 1.36382 | 1.36239 | 1.36233 | 1.36109
x2 = 0.5543 | 1.37252 | 1.36963 | 1.36633 | 1.36357 | 1.36214 | 1.36209 | 1.36085
x2 = 0.609 | 1.36927 | 1.3664 | 1.36316 | 1.3644 | 1.35903 | 1.35897 | 1.35774
x2 = 0.6529 | 1.36767 | 1.36484 | 1.36161 | 1.35891 | 1.35751 | 1.35746 | 1.35624
x2 = 0.7504 | 1.36362 | 1.36086 | 1.35769 | 1.35503 | 1.35365 | 1.3536 | 1.3524
x2 = 0.804 | 1.35916 | 1.35647 | 1.35338 | 1.35075 | 1.34938 | 1.34933 | –
x2 = 0.807 | 1.35902 | 1.35632 | 1.35323 | 1.3506 | 1.34924 | 1.34919 | –
x2 = 0.8727 | 1.35351 | 1.35088 | 1.34784 | 1.34528 | 1.34394 | 1.34389 | –
x2 = 0.9233 | 1.34636 | 1.34384 | 1.34087 | 1.33839 | 1.33708 | 1.33703 | –
x2 = 0.9253 | 1.34824 | 1.34571 | 1.34275 | 1.34023 | 1.33891 | 1.33886 | –
x2 = 0.9527 | 1.34496 | 1.34296 | 1.33953 | 1.33705 | 1.33574 | 1.33569 | –
x2 = 0.9773 | 1.34138 | 1.33894 | 1.33601 | 1.33356 | 1.33228 | 1.33223 | –
x2 = 0.989 | 1.34018 | 1.33775 | 1.33487 | 1.33242 | 1.33114 | 1.3311 | –
x2 = 0.9964 | 1.33872 | 1.33631 | 1.33342 | 1.33098 | 1.3297 | 1.32965 | –
